Where two headings read alike, the source gives them in different places.

The test system of one experiment is E. coli. Nature of the experiment: microbe, parasite or virus in culture. It counts as cell-based, Escherichia coli.
Experiment [1] has as its system S. aureus. Nature of the experiment: FIC index of pentamidine combined with various salts (checkerboard). The note with it: combination of pentamidine isethionate with each salt; FICI≤0.5 synergy, 1-2 additivity, >4 antagonism. It counts as cell-based, Staphylococcus aureus. As to the method: (§1) In the following experiments, bacterial cells were cultured in 96-well microtiter plates in cation-adjusted Mueller-Hinton Broth (MHB) for 18 h at 37° C. The main strains used were E. coli (K-12 BW25113) (placed in stationary incubator) and S. aureus (Newman Strain) (incubated at 250 r.p.m). Knockout strains (ΔtolcC and ΔychM) were used from the Keio knockout collection (Baba et al., Construction of Escherichia coli K-12 in-frame, single-gene knockout mutants: the Keio collection. Mol Syst Biol 2, 2006 0008, doi:10.1038/msb4100050 (2006)). For MIC determination and checkerboard analyses, Clinical & Laboratory Standards Institute (CLSI) protocol was used. […] DiSC3 loading of S. aureus cells was performed as previously described (Farha et al., Collapsing the proton motive force to identify synergistic combinations against Staphylococcus aureus. Chemistry & biology 20, 1168-1178, doi:10.1016/j.chembiol.2013.07.006 (2013)). CCCP concentration of 20 μM was used. pH adjustments were made by addition of HCl or NaOH. INT assay and ATP bioluminescence assays were performed as previously described (Farha et al., Collapsing the proton motive force to identify synergistic combinations against Staphylococcus aureus. Chemistry & biology 20, 1168-1178, doi:10.1016/j.chembiol.2013.07.006 (2013)). For chemical-genomic studies, the Keio library was grown overnight in cation-adjusted MHB broth, in 384-well plates. From these, treatment plates (25 mM sodium bicarbonate, or a sterile water control) were inoculated and grown for 15 hours at 37° C., in a stationary incubator. Data was normalized according to Mangat et al (Mangat et al., Rank ordering plate data facilitates data visualization and normalization in high-throughput screening. J Biomol Screen 19, 1314-1320, doi:10.1177/1087057114534298 (2014)), with gene products and GO terms mined from EcoCyc. The GFP promoter library (Keseler et al., EcoCyc: fusing model organism databases with systems biology. Nucleic Acids Res 41, D605-612, doi:10.1093/nar/gks1027 (2013)) was grown for 18 hours at ambient temperature with the same inoculation strategy as with the Keio collection. The analysis pipeline of Zaslaver et al (Zaslaver et al., A comprehensive library of fluorescent transcriptional reporters for Escherichia coli. Nat Methods 3, 623-628, doi:10.1038/nmeth895 (2006)) was used to generate maps of promoter activity, from which lists of promoters with increased or decreased activity were compiled.

Experiment [2] concerns S. aureus. Nature of the experiment: Checkerboard microdilution with sodium bicarbonate against S. aureus. It counts as cell-based, Staphylococcus aureus. On the procedure:
as §1
The effect of sodium bicarbonate on the activity of various antibacterial agents was investigated. Clinical isolates of various bacteria were obtained from the American Type Culture Collection (“ATCC”) and the International Health Management Associates (“IHMA”). Fractional inhibitory concentration indices (FICIs) were determined by setting up standard checkerboard broth microdilution assays in 96-well microtiter plates with serially diluted 8 (or 10) concentrations of each drug (sodium bicarbonate and the antibacterial agent). The protocol for checkerboard analyses was based on the CLSI guidelines. Plates were incubated at 37° C. for 18 hours, and optical density was read at 600 nm. At least 3 replicates were done for each query compound.
The FIC index (FICI) is the sum of the two FICs. Chemical-chemical interactions with ΣFIC of less or equal to 0.5 were deemed synergistic.
As validation, three of the antibiotic agents were further tested with checkerboard analyses. Checkerboard broth microdilution assays were set up in 96-well microtiter plates with serially diluted 8 (or 10) concentrations of each compound (sodium bicarbonate and the antibiotic). The protocol for checkerboard analyses was based on the CLSI guidelines. Plates were incubated at 37° C. for 18 hours, and optical density was read at 600 nm. At least 3 replicates were done for each query compound.
(In general: Dilution methods test growth across graded concentrations, often in twofold steps.)

The mark [3] stands for this setting: E. coli, salt at 25 mM, pH adjusted to 7.4.

With `OB(O)O` [Boric acid], the “MIC of dirithromycin in the presence of the salt” value (“MIC of dirithromycin” for short) in the experiment with E. coli came to 128 µg/mL. Also, the “FIC Index (with pentamidine in S. aureus)” value (“FIC Index” for short) in the experiment with S. aureus [1] is 1.

As for `c1cc2c(cc1C1CCCCC1)c1c3n2CCN=C3CCC1` [I1], the “interaction with sodium bicarbonate (checkerboard)” value in the experiment on S. aureus [2] is “synergistic interactions”.

For `COc1ccc(-c2n(CC(=O)OC3CC(C)CCC3C(C)C)c3ccccc3[n+]2C)cc1.[Cl-]` (stereo not drawn) [I2], the “interaction with sodium bicarbonate (checkerboard)” value in the experiment on S. aureus [2] was “synergistic interactions”. Same read-out and setting: the result for `CC1=CCCC2C1CCC(C)C2(C)CC/C(C)=C/Cn1c[n+](C)c2c(N)ncnc21.[Cl-]` (stereo not drawn) [I3] reads “synergistic interactions”.

For `O=S(=O)(O)CCO` [Isethionic acid], in the experiment with E. coli (setting [3]), the “MIC of dirithromycin” value was determined as 128 µg/mL. Moreover, the “FIC Index” value in the experiment on S. aureus [1] is recorded as 2.

Turning to `CC(=O)[O-].[Na+]` [Sodium acetate], the “MIC of dirithromycin” value in the experiment with E. coli was 64 µg/mL. Also, the “FIC Index” value with S. aureus [1] came to 2. On to `[Br-].[Na+]` [Sodium bromide], for which, in the experiment on E. coli (setting [3]), the “MIC of dirithromycin” value turned out to be 128 µg/mL. The “FIC Index” value in the experiment on S. aureus [1] was found to be 2.

With `[Cl-].[Na+]` [Sodium chloride], the “MIC of dirithromycin” value with E. coli (setting [3]) is 128 µg/mL. Besides, the “FIC Index” value with S. aureus [1] stood at 2. For `[F-].[Na+]` [Sodium fluoride], in the experiment with E. coli (setting [3]), the “MIC of dirithromycin” value amounted to 128 µg/mL. The “FIC Index” value with S. aureus [1] came to 1. The like results for `O=[N+]([O-])[O-].[Na+]` [Sodium nitrate] were, in that order, 128 µg/mL and 2. `O=P(O)(O)O` [Sodium phosphate]: the “MIC of dirithromycin” value in the experiment with E. coli was >128 µg/mL. The “FIC Index” value in the experiment with S. aureus [1] is >8. The like results for `O=S(=O)([O-])[O-].[Na+].[Na+]` [Sodium sulfate] were, in that order, 128 µg/mL and 2.
